Results on 7 compounds are retold here after US8735444B2, “Fluorinated rhodamines as photostable fluorescent dyes for labelling and imaging techniques” (Max-Planck-Gesellschaft zur Foerderung der Wissenschaften …, priority 2009, dated 2014).

Where two headings read alike, the source gives them in different places. Marks after values point to notes of the source that are not given here.

The conditions of data set [1]: cited from earlier work; for ε × 10^−4 / λem / λmax: H2O, pH = 9.
The subject of data set [2] is living mammalian cells (PtK2). Kind of data set: Membrane-permeation experiments in living cells, epifluorescence microscope. The class given is cell-based. The following applies: 15 minutes. Here is the method:
FIG. 9. Membrane-permeation experiments of the presented dyes. Living mammalian cells (PtK2) were incubated for 15 minutes with a 50 μg dye/ml solution. The subcellular localization of the dye was imaged in an epifluorescence microscope. A: 46-H—CH2 CF3—H—H (16); B: 42-COOH (15); C: 23; D: 37-Me-Me-H (27); E: 42-H (14)-methylester; F: 33-H—H (18).
The most important prerequisite for fluorophores used in these labeling strategies is that sufficient amounts of it need to pass cellular membrane(s) to reach the target protein. In order to asses the permeability of the cell membrane to the fluorescent dyes described in the presented invention, living mammalian cells (PtK2) previously grown overnight on cover slips, were first subjected to either 500 μg dye/ml or 50 μg dye/ml in growth medium for 15 minutes. (The amount of dye used for labeling of SNAP-fusion proteins is below 5 μg dye/ml.) Then, the cells were washed with growth medium (without dye) for 15 minutes, and imaged using an epifluorescence microscope.

A short description of data set [3]: Spectral properties of the fluorinated rhodamines (absorption, emission, quantum yield, lifetime). The format is physicochemical.
Source text: Extinction coefficients (of the long wavelength maximum) which are lower than ca. 8×10^4 M^−1 cm^−1 indicate the presence of the closed non-fluorescent form.
Data set [4] in a line: Photoresistance in aqueous solutions irradiated with 488 nm light (3 W/cm^2). The settings on record: for change in emission on irradiation: colored water solutions, several hours, 488 nm line of an Argon laser. The class given is physicochemical. From the text: The compounds also display an outstanding photostability when irradiated for a prolonged time. […] The initial absorption at the irradiation wavelength was the same for all solutions. […] After two hours of irradiation, compounds 14 and 15 retain more than 50% of the initial emission intensity and compound 14a has about 90% of the initial signal left.
FIG. 2. Photoresistance of selected compounds (14-17, 14a, and 16a in Table 2), and some commercially available fluorophores with the similar spectral properties (Alexa Fluor 488®, Rhodamine Green®, Oregon Green 488®, and Fluorescein) in aqueous solutions irradiated with 488 nm light (3 W/cm^2)

Data set [5] can be described thus: Ground state depletion (GSDIM) pump-probe measurements in PVA matrix. The format is physicochemical. The following applies: for λem / λex: PVA matrix table; for Γfl, remaining fluorescence after 5 measurement cycles / Rfl, t=0, residual fluorescence after the pump-pulse: PVA matrix; for Γfl, remaining fluorescence after 5 measurement cycles: at one spot with the given power density; for Rfl, t=0, residual fluorescence after the pump-pulse: pump-pulse power density per dye 14-110 kW/cm^2. The text has this:
In this method, “off” and “on” switching of the fluorescence is achieved by transiently shelving the fluorophores into a meta-stable dark state. Upon the return of only a few isolated single molecules to the fluorescent singlet state, positions of these single light emitting spots can be imaged on a camera and localized with high precision. Upon repeating this procedure and acquiring many pictures, a super-resolution image can be reconstructed from the localized positions. A prerequisite of this method is that >70% of the ensemble of the applied fluorescent dyes can be shelved into a dark state at a time (to ensure the detection of isolated fluorescent spots at a time in a densely labeled sample) and that the fluorophores are bright enough, i.e., that they emit enough photons while being in the singlet on-state (to ensure high precision of localization).
Switching off of the laser leads to a recovery of the fluorescence ensemble within a characteristic recovery time of 150-450 ms (Table 5), indicating the shelving into a metastable dark state. The measurements were performed in a pump-probe mode, i.e., the residual level of fluorescence was probed with I<100 W/cm^2 for 0.5 ms after strong irradiation for 10 ms with the given laser intensity in Table 5.
Furthermore, recovery of the fluorescence can be accelerated by addition of UV light, which leads to an optically-induced depopulation of the dark states. Already 2-3 kW/cm^2 of 375 nm light recovers the fluorescence within an irradiation period of 0.5 ms. […] The accelerated recovery is important for samples with low density of labels, where the addition of UV light and thus acceleration of the return from a dark state helps to accelerate image acquisition. Photostabilities of the studied fluorescent dyes under the GSDIM conditions are different: 15-50 pump-probe cycles with a pump intensity of 14-110 kW/cm^2 bleach 30-95% of the whole ensemble.

The conditions of data set [6]: cited from earlier work.

For 5(6)-carboxyfluorescein [Compound 7], in data set [1], the “ε × 10^−4” value was 7.8^4*, the λem is reported as 517^4* nm and the λmax is on record as 492^4* nm.

Take `O=C(O)c1ccccc1-c1c2ccc(=NCC(F)(F)F)c(S(=O)(=O)O)c-2oc2c(S(=O)(=O)O)c(NCC(F)(F)F)ccc12` [Compound 16, 4,5-Disulfo-N,N′-bis(2,2,2-trifluoroethyl)rhodamine]: the “Structures stained in living cells” value in data set [2] (50 μg dye/ml) was “Dim cytoplasmatic stain with bright”. Further, the “Structures stained in living cells” value in data set [2] (500 μg dye/ml) was “Dim cellular stain with brightly”. Moreover, in data set [3] (aqueous buffer at pH 7), the “ABSORPTION λMAX” value is 499 nm, the “EMISSION λMAX” value came to 520 nm, the ΦFL stood at 0.88 and the τFL is 3.8 ns. In data set [3] (methanol), the ABSORPTION ε is 87000 M⁻¹ cm⁻¹, the “ABSORPTION λMAX” value is given as 507 nm and the “EMISSION λMAX” value amounted to 524 nm. Further, the “change in emission on irradiation” value in data set [4] is “without any significant changes in their emission”.

As to `COC(=O)CCN(C)C(=O)c1ccccc1-c1c2ccc(=NCC(F)(F)F)cc-2oc2cc(NCC(F)(F)F)ccc12` [Compound 44-Me], the “Structures stained in living cells” value in data set [2] (500 μg dye/ml) is on record as “Cytoplasmatic stain visible”. In addition, in data set [3] (methanol), the ABSORPTION ε turned out to be 87000 M⁻¹ cm⁻¹, the “ABSORPTION λMAX” value is given as 512^b nm and the “EMISSION λMAX” value is on record as 534^b nm. Moreover, in data set [5], the λem is 534 nm; the λex turned out to be 512 nm; the “Γfl, remaining fluorescence after 5 measurement cycles” value amounted to 90%; the “Rfl, t=0, residual fluorescence after the pump-pulse” value was determined as 8%.

On to `CN(C)c1ccc2c(-c3ccccc3C(=O)[O-])c3ccc(N(C)C)cc3[o+]c2c1` [tetramethyl rhodamine], for which the “stability relative to rhodamine 6G” value in data set [6] (high light intensities (up to 10^7 W/cm^2)) is 4-5 times. Besides, in data set [6] (in water, low light intensities (up to 10^3 W/cm^2)), the Photobleaching quantum yields is 3.3 ×10^−7.

Take `CN(CCC(=O)O)C(=O)c1ccccc1-c1c2ccc(=NCC(F)(F)F)cc-2oc2cc(NCC(F)(F)F)ccc12.Cl` [Compound 14a]: in data set [2] (500 μg dye/ml), the “Structures stained in living cells” value was “Mitochondrial stain visible”. In data set [3] (aqueous buffer at pH 7), the ABSORPTION ε amounted to 57000 M⁻¹ cm⁻¹, the “ABSORPTION λMAX” value came to 510 nm, the “EMISSION λMAX” value is 531 nm and the ΦFL turned out to be 0.86. The same compound returned a τFL in data set [3] (aqueous buffer at pH 7) of 4.2 ns. In data set [3] (methanol), the “ABSORPTION λMAX” value was 512 nm and the “EMISSION λMAX” value is reported as 534 nm. Moreover, the “initial emission intensity retained” value in data set [4] (after two hours of irradiation, 488 nm, 3 W/cm^2) is reported as “about 90%”.

With `O=C1OC2(c3cc(F)c(O)cc3Oc3cc(O)c(F)cc32)c2ccccc21` [Compound 8], in data set [1] (20° C.), the τ entry is on record as “^7*τ = 4.1 ns (20° C.)”. Besides, in data set [1], the “ε × 10^−4” value is 8.5^4*, the λem is 518^4* nm and the λmax is listed as 492^4* nm.

Consider `CN(CCC(=O)O)C(=O)c1ccccc1-c1c2ccc(=NCC(F)(F)F)c(S(=O)(=O)O)c-2oc2c(S(=O)(=O)O)c(NCC(F)(F)F)ccc12` [Compound 16a], for which the “Structures stained in living cells” value in data set [2] (500 μg dye/ml) is “Cellular stain visible; bright”. In data set [3] (aqueous buffer at pH 7), the “ABSORPTION λMAX” value was found to be 512 nm, the “EMISSION λMAX” value came to 530 nm, the ΦFL turned out to be 0.86 and the τFL was 4.1 ns. In data set [3] (methanol), the ABSORPTION ε worked out at 74000 M⁻¹ cm⁻¹, the “ABSORPTION λMAX” value is listed as 517 nm and the “EMISSION λMAX” value is 536 nm. For the same compound, in data set [4], the “change in emission on irradiation” value is given as “without any significant changes in their emission”. For the same compound, in data set [5], the λem came to 530 nm; the λex is listed as 512 nm; the “Γfl, remaining fluorescence after 5 measurement cycles” value is reported as 35%; the “Rfl, t=0, residual fluorescence after the pump-pulse” value is reported as 25%.
